Patent publication US10780090B2, “Heteroaryl compounds useful as inhibitors of SUMO activating enzyme” (Millennium Pharmaceuticals, Inc., priority 2014, dated 2020)

Target: recombinant human SAE enzyme (Homo sapiens (Human), UniProt Q9UBT2)
Assay: SAE HTRF enzyme assay
Format: biochemical
Conditions: for inhibition at 0.111 µM: read-out: Percent Inhibition; for IC50: class symbols A/B/C
Method in brief: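 Human SAE (0.11 nM) with 0.5 μM ATP, 0.125 μM Sumo-Flag and 0.01 μM Ubc9-GST in HEPES pH 7.5, 5 mM MgCl2, 250 μM GSH; 105 min at 24 °C. Stopped with EDTA; HTRF read after 2 h with Eu-anti-Flag and APC-anti-GST. Percent inhibition or IC50 reported.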

recombinant human SAE enzyme, sequence (Q9UBT2 whole entry): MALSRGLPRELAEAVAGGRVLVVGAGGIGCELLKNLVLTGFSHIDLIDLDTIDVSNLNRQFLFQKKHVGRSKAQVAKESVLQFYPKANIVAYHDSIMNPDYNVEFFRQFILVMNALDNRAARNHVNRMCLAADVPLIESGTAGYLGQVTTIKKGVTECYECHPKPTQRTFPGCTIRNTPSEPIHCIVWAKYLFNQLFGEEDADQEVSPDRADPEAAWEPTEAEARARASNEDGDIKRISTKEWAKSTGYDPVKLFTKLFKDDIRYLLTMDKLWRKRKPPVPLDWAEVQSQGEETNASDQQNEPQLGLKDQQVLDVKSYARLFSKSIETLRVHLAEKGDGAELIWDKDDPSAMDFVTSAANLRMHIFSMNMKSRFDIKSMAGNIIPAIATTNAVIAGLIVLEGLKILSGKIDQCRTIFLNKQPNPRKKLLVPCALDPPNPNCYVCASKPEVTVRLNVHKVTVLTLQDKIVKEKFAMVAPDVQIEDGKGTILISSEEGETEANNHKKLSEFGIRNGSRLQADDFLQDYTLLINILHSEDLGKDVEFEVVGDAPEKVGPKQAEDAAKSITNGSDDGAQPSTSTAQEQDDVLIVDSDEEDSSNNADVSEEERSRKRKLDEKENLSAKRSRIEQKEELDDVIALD
recombinant human SAE enzyme, sequence (Q9UBE0 whole entry partner): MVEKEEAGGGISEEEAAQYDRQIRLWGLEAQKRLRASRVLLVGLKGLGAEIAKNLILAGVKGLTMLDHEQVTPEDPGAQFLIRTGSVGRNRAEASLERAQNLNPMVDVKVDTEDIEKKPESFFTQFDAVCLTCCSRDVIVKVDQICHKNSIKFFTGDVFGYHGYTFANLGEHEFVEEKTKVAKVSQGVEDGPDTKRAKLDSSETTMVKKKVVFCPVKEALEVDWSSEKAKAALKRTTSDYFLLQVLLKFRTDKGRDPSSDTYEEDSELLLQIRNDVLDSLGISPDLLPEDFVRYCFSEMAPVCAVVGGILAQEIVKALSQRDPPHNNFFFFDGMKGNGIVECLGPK

Row | Structure (SMILES) | inhibition at 0.111 µM (Concentration 0.111 μM) [%] | IC50 [nM] | Percent Inhibition (SAE inhibition at compound concentration 0.111 μM) [%] | Percent Inhibition (Concentration 0.111 μM)
1 | NS(=O)(=O)OC[C@H]1C[C@@H](Nc2ncncc2C(=O)c2ccc(Cc3cccc(Cl)c3)s2)[C@@H](F)[C@@H]1O [I-205, {(1R,2R,3R,4R)-4-[(5-{[5-(3-Chlorobenzyl)-2-thienyl]carbonyl}pyrimidin-4-yl)amino]-3-fluoro-2-hydroxycyclopentyl}methyl sulfamate] | 51 | 100 to 1000 | – | –
2 | NS(=O)(=O)OC[C@H]1C[C@@H](Nc2ncncc2C(=O)c2cc(CN3CC=CC3)cs2)C[C@@H]1O [I-219, {(1R,2S,4R)-4-[(5-{[4-(2,5-dihydro-1H-pyrrol-1-ylmethyl)-2-thienyl]carbonyl}pyrimidin-4-yl)amino]-2-hydroxycyclopentyl}methyl sulfamate] | 32 | 100 to 1000 | – | –
3 | CC[C@H](C)[C@H](N)C(=O)O[C@H]1C[C@H](Nc2ncncc2C(=O)c2cc([C@@H]3OCCc4ccc(Cl)cc43)c(C)s2)C[C@@H]1COS(N)(=O)=O.Cl [I-363] | – | – | 57 | –
4 | NS(=O)(=O)OC[C@H]1C[C@@H](Nc2ncncc2C(=O)c2ccc(Cc3cccc(Cl)c3)o2)C[C@@H]1O [I-93, [(1R,2S,4R)-4-({5-[5-(3-chlorobenzyl)-2-furoyl]pyrimidin-4-yl}amino)-2-hydroxycyclopentyl]methyl sulfamate] | 98 | – | – | –
5 | Cc1sc(C(=O)c2cncnc2N[C@@H]2C[C@H](COS(N)(=O)=O)[C@@H](O)C2)cc1CN1CCc2ccc(C#N)cc21 [I-128, [(1R,2S,4R)-4-{[5-({4-[(6-cyano-2,3-dihydro-1H-indol-1-yl)methyl]-5-methyl-2-thienyl}carbonyl)pyrimidin-4-yl]amino}-2-hydroxycyclopentyl]methyl sulfamate] | 95 | < 10 | – | –
6 | C[C@](N)(c1cccc(Br)c1)c1csc(C(=O)c2cncnc2N[C@@H]2C[C@H](COS(N)(=O)=O)[C@@H](O)[C@H]2O)c1 (single isomer, unassigned) [I-27b, [(1R,2R,3S,4R)-4-{[5-({4-[(1S)-1-amino-1-(3-bromophenyl)ethyl]-2-thienyl}carbonyl)pyrimidin-4-yl]amino}-2,3-dihydroxycyclopentyl]methyl sulfamate or [(1R,2R,3S,4R)-4-{[5-({4-[(1R)-1-amino-1-(3-bromophenyl)ethyl]-2-thienyl}carbonyl)pyrimidin-4-yl]amino}-2,3-dihydroxycyclopentyl]methyl sulfamate] | – | < 10 | – | 101
7 | NS(=O)(=O)OC[C@H]1C[C@@H](Nc2ncncc2C(=O)c2cc(Cc3cccc(Br)c3)cs2)[C@@H](F)[C@@H]1O [I-101, {(1R,2R,3R,4R)-4-[(5-{[4-(3-bromobenzyl)-2-thienyl]carbonyl}pyrimidin-4-yl)amino]-3-fluoro-2-hydroxycyclopentyl}methyl sulfamate] | 96 | < 10 | – | –
8 | Cc1oc(C(=O)c2cncnc2N[C@@H]2C[C@H](COS(N)(=O)=O)[C@@H](O)C2)cc1Cc1cccc(Cl)c1 [I-33, [(1R,2S,4R)-4-({5-[4-(3-chlorobenzyl)-5-methyl-2-furoyl]pyrimidin-4-yl}amino)-2-hydroxycyclopentyl]methyl sulfamate] | 100 | < 10 | – | –
